Experimental findings from patent publication US5001255A, “Idene analogs of mevalonolactone and derivatives thereof” (Sandoz Pharm. Corp., priority 1988, dated 1991) are described below.

SMILES strings stand for the structures.

One assay addresses T1, HMG-CoA reductase (Rattus norvegicus, UniProt P51639).
T1 sequence (P51639 1-887): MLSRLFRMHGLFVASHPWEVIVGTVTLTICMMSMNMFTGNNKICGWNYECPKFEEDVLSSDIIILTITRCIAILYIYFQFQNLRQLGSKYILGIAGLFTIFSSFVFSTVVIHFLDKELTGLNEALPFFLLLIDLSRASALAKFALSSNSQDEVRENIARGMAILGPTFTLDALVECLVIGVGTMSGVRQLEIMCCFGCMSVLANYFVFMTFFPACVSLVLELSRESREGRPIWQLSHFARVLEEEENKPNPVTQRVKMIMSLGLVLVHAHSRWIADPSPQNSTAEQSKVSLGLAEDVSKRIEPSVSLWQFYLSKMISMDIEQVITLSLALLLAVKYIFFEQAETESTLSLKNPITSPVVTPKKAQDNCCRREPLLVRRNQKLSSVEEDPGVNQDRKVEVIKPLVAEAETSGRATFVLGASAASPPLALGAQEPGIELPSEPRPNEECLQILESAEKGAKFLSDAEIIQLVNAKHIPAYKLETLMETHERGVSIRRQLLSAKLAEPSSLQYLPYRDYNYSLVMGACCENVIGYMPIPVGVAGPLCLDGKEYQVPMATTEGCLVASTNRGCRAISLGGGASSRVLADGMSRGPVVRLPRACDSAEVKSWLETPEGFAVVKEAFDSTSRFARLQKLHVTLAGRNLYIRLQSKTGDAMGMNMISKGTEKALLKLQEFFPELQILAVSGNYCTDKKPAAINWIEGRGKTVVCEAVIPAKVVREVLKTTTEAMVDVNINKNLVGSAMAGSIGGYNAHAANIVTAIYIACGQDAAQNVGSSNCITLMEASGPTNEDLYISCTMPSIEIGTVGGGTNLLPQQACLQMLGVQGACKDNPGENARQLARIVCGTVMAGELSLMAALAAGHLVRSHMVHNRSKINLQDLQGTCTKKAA
Nature of the assay: Test A. In Vitro Microsomal Assay of HMG-CoA Reductase Inhibition. Type of assay: biochemical, rat (male Sprague-Dawley). The settings on record: rat liver microsomes; [14C]HMG-CoA substrate; test substance 0.0001-2,000 μmolar; read-out: IC50 (concentration producing a 50% inhibition of HMG-CoA reductase activity). Here is the method: Test A. In Vitro Microsomal Assay of HMG-CoA Reductase Inhibition:
200 μl. aliquots (1.08-1.50 mg./ml.) of rat liver microsomal suspensions, freshly prepared from male Sprague-Dawley rats (150-225 g. body weight), in Buffer A with 10 mmol. dithiothreitol are incubated with 10 μl. of a solution of the test substance in dimethylacetamide and assayed for HMG-CoA reductase activity as described in Ackerman et al., J. Lipid Res. 18, 408-413 (1977), the concentration of the test substance in the assay system being 0.0001-2,000 μmolar. In the assay the microsomes are the source of the HMG-CoA reductase enzyme which catalyzes the reduction of HMG-CoA to mevalonate. The assay employs a chloroform extraction to separate the product, [^14 C]mevalonolactone, formed by the HMG-CoA reductase reduction of the substrate, [^14 C]HMG-CoA. [^3 H]mevalonolactone is added as an internal reference. Inhibition of HMG-CoA reductase is calculated from the decrease in specific activity ([^14 C/^3 H]mevalonate) of test groups compared to controls.
IC50 is the concentration of the test substance in the assay system calculated or observed to produce a 50% inhibition of HMG-CoA reductase activity.

Assay [1] has as its system 3β-hydroxysterol synthesis. The assay is described as follows: Test B. In Vivo Cholesterol Biosynthesis Inhibition Test. Further details: species or system rat (male Wistar Royal Hart). The settings on record: Rattus norvegicus; rats, oral, 0.5% carboxymethylcellulose; i.p. sodium [1-14C]acetate one hour later; serum two hours after mid-dark; read-out: ED50 (dose producing a 50% inhibition of 3β-hydroxysterol synthesis).
Protocol: Test B. In Vivo Cholesterol Biosynthesis Inhibition Test:
In vivo studies utilize male Wistar Royal Hart rats weighing 150±20 g. which have been kept for 7-10 days on an
altered light cycle (6:30 A.M.-6:30 P.M. dark) housed two per cage and fed powdered Purina Rat Chow and water ad libitum. Three hours before the diurnal maximum of cholesterol synthesis at mid-dark, the rats are orally administered the test substance (e.g., 0.01-200 mg./kg. body weight) dissolved or as a suspension in 0.5% carboxymethylcellulose in a volume of 1 ml./100 g. body weight. Controls receive vehicle alone. One hour after receiving the test substance (or the vehicle alone), the rats are injected intraperitoneally with about 25 μCi/100 g. body weight of sodium [1-^14 C]acetate 1-3 mCi/mmol. Two hours after mid-dark, blood samples are obtained under sodium hexobarbitol anesthesia, and the serum is separated by centrifugation.
The [^14 C]digitonides are then counted by liquid scintillation spectrometry. After correcting for efficiencies, the results are calculated in nCi (nanocuries) of 3β-hydroxysterol formed per 100 ml. of serum. Inhibition of 3β-hydroxysterol synthesis is calculated from the reduction in the nCi of 3β-hydroxysterols formed from test qroups compared to controls.
ED50 is the dose of the test substance calculated or observed to produce a 50% inhibition of 3β-hydroxysterol synthesis.

`O=C(O)C[C@H](O)C[C@H](O)/C=C/C1=C(c2ccc(F)cc2)c2ccccc2C12CCCC2`: on HMG-CoA reductase, the IC50 was found to be 3 nM.

For `O=C(O)C[C@H](O)C[C@H](O)/C=C/C1=C(c2ccc(F)cc2)c2ccccc2C12CCCC2` (relative stereo) [Example 2, Sodium erythro-(E)-3,5-dihydroxy-7-[3'-(4"-fluorophenyl)spiro[cyclopentane-1,1'(1H)-inden]-2'-yl]hept-6-enoate], the IC50 at HMG-CoA reductase turned out to be 5 nM. Besides, in assay [1], the ED50 amounted to 0.07 mg/kg.

Turning to `Cc1cc(C)cc(C2=C(/C=C/[C@H]3C[C@@H](O)CC(=O)O3)C3(CCCC3)c3ccccc32)c1` (relative stereo) [Example 7], the IC50 on HMG-CoA reductase worked out at 150 nM.

As for `Cc1cc(C)cc(C2=C(/C=C/[C@@H](O)C[C@@H](O)CC(=O)O)C3(CCCC3)c3ccccc32)c1` (relative stereo) [Example 8, Sodium erythro-(E)-3,5-dihydroxy-7-[3'-(3",5"-dimethylphenyl)spiro[cyclopentane-1,1'(1H)-inden]-2'-yl]hept-6-enoate], at HMG-CoA reductase, the IC50 was determined as 7 nM. The ED50 in assay [1] came to 0.31 mg/kg.

`CC[C@H](C)C(=O)O[C@H]1CCC=C2C=C[C@H](C)[C@H](CC[C@@H]3C[C@@H](O)CC(=O)O3)[C@H]21` [Compactin, reference compound]: the ED50 in assay [1] stood at 3.5 mg/kg.

Consider `CCC1(CC)C(/C=C/C(O)CC(O)CC(=O)O)=C(c2ccc(F)cc2)c2ccccc21` (centres unmarked) [Example 17], for which the IC50 at HMG-CoA reductase is 4700 nM.

In the case of `CC(C)C1C(/C=C/[C@@H]2C[C@@H](O)CC(=O)O2)=C(c2ccc(F)cc2)c2ccccc21` (some centres unmarked) [Example 20], the IC50 on HMG-CoA reductase came out at 530 nM.

As for `CCOC(=O)CC(O)CC(O)/C=C/C1=C(c2ccc(F)cc2)c2ccccc2C12CC2` (centres unmarked) [Example 24], at HMG-CoA reductase, the IC50 turned out to be 19 nM. For the same compound, the ED50 in assay [1] turned out to be 0.71 mg/kg.
